Measured values taken from patent US20220169632A1, “METHODS AND MATERIALS FOR INCREASING OR MAINTAINING NICOTINAMIDE MONONUCLEOTIDE ADENYLYL TRANSFERASE-2 (NMNAT2) POLYPEPTIDE LEVELS” (University of Pittsburgh - Of the Commonwealth System of …, priority 2019, published 2022).

System: NMNAT2
Assay: NMNAT2-Hibit nano-luciferase activity in transfected U87MG cells, 25 μM, 24 hours
Type: cell-based
Settings: NMNAT2-Hibit luc plasmid; for C: Compound efficacy for NMNAT2 activation; increase in NMNAT2 luciferase activity: 24 hours (Table C); for B: compound efficacy (IC50) for NMNAT2 activation; increase in NMNAT2 luciferase activity: 24 hours (Table B)
Experimental: Selected compounds were tested in vitro. Briefly, U87MG cells were transfected with NMNAT2-Hibit luc plasmid. Cells were treated with a test compound at 25 μM for 24 hours. Cells were then collected and assayed for nano-luciferase activity.

Row | Structure (SMILES) | C: Compound efficacy for NMNAT2 activation; increase in NMNAT2 luciferase activity | B: compound efficacy (IC50) for NMNAT2 activation; increase in NMNAT2 luciferase activity
1 | O=C(Cn1ccc2ccc(Br)cc21)NCCCc1ccco1 [Compound 181153] | ++ (“++” >20% and <100% increase in NMNAT2 luciferase activity.) | –
2 | Cc1ccc2onc(CNC(=O)Nc3ccc(C)c(F)c3)c2c1 [Compound 181039] | – | + (“+” <20% increase in NMNAT2 luciferase activity.)
3 | O=C(Cn1ccc2ccccc21)NCc1ccco1 [Compound 181147] | + (“+” <20% increase in NMNAT2 luciferase activity.) | –
4 | CCn1c(=O)c(=O)n(CC(=O)NCc2ccc(C)o2)c2ccccc21 [Compound 181139] | + (“+” <20% increase in NMNAT2 luciferase activity.) | –
5 | Cc1ccc2onc(CNC(=O)Nc3ccc(C(C)C)cc3)c2c1 [Compound 181053] | – | + (“+” <20% increase in NMNAT2 luciferase activity.)
6 | CCc1ccc(NC(=O)NCc2noc3ccc(C)cc23)cc1 [Compound 181052] | – | + (“+” <20% increase in NMNAT2 luciferase activity.)
7 | O=C(CCc1cn(Cc2ccccc2F)c2ccccc12)NCc1ccco1 [Compound 181117] | + (“+” <20% increase in NMNAT2 luciferase activity.) | –
8 | CCC(=O)c1cn(CC(=O)NCc2ccco2)c2ccccc12 [Compound 181108] | + (“+” <20% increase in NMNAT2 luciferase activity.) | –
9 | COc1ccc(NC(=O)NCc2noc3ccc(C)cc23)cc1 [Compound 181078] | – | + (“+” <20% increase in NMNAT2 luciferase activity.)
10 | COc1cccc2ccn(CC(=O)NCc3ccco3)c12 [Compound 181146] | + (“+” <20% increase in NMNAT2 luciferase activity.) | –
11 | Cc1ccc(NC(=O)NCc2noc3ccccc23)cc1F [Compound 181004] | – | + (“+” <20% increase in NMNAT2 luciferase activity.)
12 | Cc1ccc2onc(CNC(=O)N(C)c3ccc(C)c(C)c3)c2c1 [Compound 181056] | – | + (“+” <20% increase in NMNAT2 luciferase activity.)
13 | Cc1ccc2onc(CNC(=O)NCc3ccc(Cl)cc3)c2c1 [Compound 181082] | – | ++ (“++” >20% and <100% increase in NMNAT2 luciferase activity.)
14 | Cc1ccc2onc(CNC(=O)Nc3ccccc3C)c2c1 [Compound 181074] | – | + (“+” <20% increase in NMNAT2 luciferase activity.)
15 | Cc1ccc(CNC(=O)Cn2c(-c3cccs3)cc3cc(F)ccc32)o1 [Compound 181119] | + (“+” <20% increase in NMNAT2 luciferase activity.) | –
16 | O=C(NCCn1ccc2c(Cl)cccc21)c1ccco1 [Compound 181155] | + (“+” <20% increase in NMNAT2 luciferase activity.) | –
17 | CC(=O)c1cccc(NC(=O)NCc2noc3ccccc23)c1 [Compound 181031] | – | + (“+” <20% increase in NMNAT2 luciferase activity.)
18 | Cc1cc(C)n(CC(=O)Nc2ccc(C(=O)NCc3ccco3)cc2)c(=O)c1C#N [Compound 181133] | + (“+” <20% increase in NMNAT2 luciferase activity.) | –
19 | Cc1ccc(C)c(N(C)C(=O)NCc2noc3ccccc23)c1 [Compound 181016] | – | + (“+” <20% increase in NMNAT2 luciferase activity.)
20 | Cc1ccc(CCNC(=O)NCc2noc3ccc(C)cc23)cc1 [Compound 181083] | – | ++ (“++” >20% and <100% increase in NMNAT2 luciferase activity.)
21 | Cc1ccc(CCNC(=O)NCc2noc3ccccc23)cc1 [Compound 181030] | – | + (“+” <20% increase in NMNAT2 luciferase activity.)
22 | Cc1ccc2onc(CNC(=O)NCc3ccccc3)c2c1 [Compound 181092] | – | + (“+” <20% increase in NMNAT2 luciferase activity.)
23 | Cc1cc2ccccc2c(=O)n1CC(=O)NCc1ccco1 [Compound 181112] | + (“+” <20% increase in NMNAT2 luciferase activity.) | –
24 | Cc1ccc2onc(CNC(=O)NCc3ccc(F)cc3)c2c1 [Compound 181047] | – | ++ (“++” >20% and <100% increase in NMNAT2 luciferase activity.)
25 | O=C(NCc1noc2ccccc12)Nc1ccccc1Cl [Compound 181027] | – | + (“+” <20% increase in NMNAT2 luciferase activity.)
26 | COc1ccccc1CNC(=O)NCc1noc2ccc(C)cc12 [Compound 181044] | – | + (“+” <20% increase in NMNAT2 luciferase activity.)
27 | Cc1cccc(N(C)C(=O)NCc2noc3ccc(C)cc23)c1 [Compound 181058] | – | + (“+” <20% increase in NMNAT2 luciferase activity.)

Row | Structure (SMILES) | C: Compound efficacy for NMNAT2 activation; increase in NMNAT2 luciferase activity | B: compound efficacy (IC50) for NMNAT2 activation; increase in NMNAT2 luciferase activity
28 | CCn1c(=O)c(=O)n(CC(=O)NCc2ccco2)c2ccccc21 [Compound 181138] | + (“+” <20% increase in NMNAT2 luciferase activity.) | –
29 | Cc1ccc(Cl)cc1N(C)C(=O)NCc1noc2ccccc12 [Compound 181011] | – | + (“+” <20% increase in NMNAT2 luciferase activity.)
30 | Cc1cc2ccccc2n1CC(=O)NCc1ccco1 [Compound 181144] | + (“+” <20% increase in NMNAT2 luciferase activity.) | –
31 | Cc1ccc2onc(CNC(=O)N(C)c3ccccc3Cl)c2c1 [Compound 181057] | – | + (“+” <20% increase in NMNAT2 luciferase activity.)
32 | Cc1ccc(NC(=O)NCc2noc3ccc(C)cc23)c(Br)c1 [Compound 181038] | – | + (“+” <20% increase in NMNAT2 luciferase activity.)
33 | O=C(Cn1cc(C(=O)c2ccccc2)c2ccccc21)NCc1ccco1 [Compound 181106] | +++ (“+++” >100% increase in NMNAT2 luciferase activity.) | –
34 | Cc1cc(C)cc(NC(=O)NCc2noc3ccccc23)c1 [Compound 181035] | – | + (“+” <20% increase in NMNAT2 luciferase activity.)
35 | CCCCN(C)CCNC(=O)NCc1noc2ccc(C)cc12 [Compound 181070] | – | + (“+” <20% increase in NMNAT2 luciferase activity.)
36 | CN(C(=O)NCc1noc2ccccc12)c1ccccc1Cl [Compound 181017] | – | + (“+” <20% increase in NMNAT2 luciferase activity.)
37 | COc1ccc2c(ccn2CCNC(=O)c2ccco2)c1 [Compound 181157] | + (“+” <20% increase in NMNAT2 luciferase activity.) | –
38 | CSc1ccc(CNC(=O)Cn2c(C)cc(C)c(C#N)c2=O)cc1 [Compound 181132] | + (“+” <20% increase in NMNAT2 luciferase activity.) | –
39 | COc1ccc(NC(=O)NCc2noc3ccccc23)cc1Cl [Compound 181006] | – | + (“+” <20% increase in NMNAT2 luciferase activity.)
40 | CSc1ccc(CCNC(=O)NCc2noc3ccc(C)cc23)cc1 [Compound 181089] | – | ++ (“++” >20% and <100% increase in NMNAT2 luciferase activity.)
41 | CCc1ccccc1NC(=O)NCc1noc2ccc(C)cc12 [Compound 181075] | – | + (“+” <20% increase in NMNAT2 luciferase activity.)
42 | Cn1cc(C(CC(=O)NCc2ccco2)c2cccc(F)c2)c2ccccc21 (stereo not drawn) [Compound 181143] | + (“+” <20% increase in NMNAT2 luciferase activity.) | –
43 | O=C(Cn1c(-c2cccs2)cc2cc(F)ccc21)NCc1ccco1 [Compound 181118] | + (“+” <20% increase in NMNAT2 luciferase activity.) | –
44 | Cc1cccc(CCNC(=O)NCc2noc3ccccc23)c1 [Compound 181023] | – | + (“+” <20% increase in NMNAT2 luciferase activity.)
45 | Cc1c(C=O)c2ccccc2n1CC(=O)NCc1ccco1 [Compound 181110] | + (“+” <20% increase in NMNAT2 luciferase activity.) | –
46 | Cc1ccc2onc(CNC(=O)NCCc3c[nH]c4ccccc34)c2c1 [Compound 181086] | – | ++ (“++” >20% and <100% increase in NMNAT2 luciferase activity.)
47 | Cc1ccc2onc(CNC(=O)NC3CCCCCC3)c2c1 [Compound 181049] | – | + (“+” <20% increase in NMNAT2 luciferase activity.)
48 | Cc1ccc2onc(CNC(=O)N3CCN(c4cccc(Cl)c4)CC3)c2c1 [Compound 181045] | – | + (“+” <20% increase in NMNAT2 luciferase activity.)
49 | CCn1c2ccccc2c2cc(NC(=O)NCc3noc4ccc(C)cc34)ccc21 [Compound 181064] | – | + (“+” <20% increase in NMNAT2 luciferase activity.)
50 | COc1ccc(CNC(=O)NCc2noc3ccccc23)cc1 [Compound 181019] | – | + (“+” <20% increase in NMNAT2 luciferase activity.)
51 | Cc1ccc(C(CC(=O)NCc2ccco2)c2cn(C)c3ccccc23)cc1 (stereo not drawn) [Compound 181142] | + (“+” <20% increase in NMNAT2 luciferase activity.) | –
52 | Cc1cc2ncn(CC(=O)NCc3ccco3)c2cc1C [Compound 181159] | + (“+” <20% increase in NMNAT2 luciferase activity.) | –
53 | O=C(NCc1noc2ccccc12)Nc1ccc(Cl)cc1 [Compound 181028] | – | + (“+” <20% increase in NMNAT2 luciferase activity.)
54 | COc1ccc(CNC(=O)Cn2c(C)cc(C)c(C#N)c2=O)cc1 [Compound 181124] | + (“+” <20% increase in NMNAT2 luciferase activity.) | –
